For one series, the system named is Mus musculus. As to conditions: chronic; duration: 18 months; organ weight.
The next series relates to Canidae. As to conditions: chronic, Dog Other.
The mark [1] stands for this setting: chronic, duration: 2 years, histopathology: nonneoplastic.
Setting [2] is: reproduction developmental, reproduction.

The text below walks through data of EPA's ToxValDB 9.5 (doi:10.2903/j.efsa.2009.1167).

Regarding `CCCCC(C#N)(Cn1cncn1)c1ccc(Cl)cc1` (stereo not given) [Myclobutanil], the NOAEL (as a rule, the highest tested level that showed no adverse finding) with Rattus norvegicus (setting [1]) was found to be 2.5 mg/kg-day.
Turning to `Fc1ccc([C@@]2(Cn3cncn3)O[C@@H]2c2ccccc2Cl)cc1` [Epoxiconazole], the NOAEL with Mus musculus was 0.8 mg/kg-day; in the series on Rattus norvegicus (setting [2]), 2.3 mg/kg-day.
With `CC(C)(C)[C@@H](O)/C(=C\c1ccc(Cl)cc1Cl)n1cncn1` [Diniconazole-M], the NOAEL in the series on Rattus norvegicus (setting [1]) came to 5 mg/kg-day; with Rattus norvegicus (developmental, development) it was 5 mg/kg-day.
In the series on Canidae (histopathology: nonneoplastic), `CC(C)(C)C(O)(CCc1ccc(Cl)cc1)Cn1cncn1` (stereo not given) [Tebuconazole] had an NOAEL of 3 mg/kg-day.
As to `CC(C)(C)C(=O)C(Oc1ccc(Cl)cc1)n1cncn1` (stereo not given) [Triadimefon], the NOAEL was 2 mg/kg-day with Rattus norvegicus (acute) and 3.4 mg/kg-day in the series on Rattus norvegicus (subchronic, duration: 13 weeks).
For the compound `CC(C1CC1)C(O)(Cn1cncn1)c1ccc(Cl)cc1` (stereo not given) [Cyproconazole], the NOAEL with Rattus norvegicus (chronic, organ weight) is 2 mg/kg-day; in the series with Rattus norvegicus (developmental, development), 2 mg/kg-day.
With `C[Si](Cn1cncn1)(c1ccc(F)cc1)c1ccc(F)cc1` [Flusilazole], the NOAEL stood at 0.2 mg/kg-day with Canidae (duration: 1 years) and 0.5 mg/kg-day in the series with Rattus norvegicus (reproduction developmental, organ weight).
On to `CC(C)(C)C(O)C(Oc1ccc(Cl)cc1)n1cncn1` (stereo not given) [Triadimenol], for which the NOAEL in the series with Canidae (duration: 2 years) worked out at 4 mg/kg-day.
Consider `CCCC1COC(Cn2cncn2)(c2ccc(Cl)cc2Cl)O1` (stereo not given) [Propiconazole], for which the NOAEL in the series with Rattus norvegicus (developmental, development) is 30 mg/kg-day; in the series with Rattus norvegicus (setting [2]), > 2.8 mg/kg-day.
